The results in this text go back to patent US20140087944A1, “COMPOSITIONS AND METHODS FOR ENHANCING PLANT GROWTH” (NOVOZYMES BIOAG A/S, priority 2012, published 2014).

Holding throughout (assay type): in vivo
Assay [1] concerns soybean. The assay can be described thus: Soybean pod yield in greenhouse, gluconolactone with isoflavonoids (Example 8). The note with it: for soybean pod yield, Fresh Weight: gluconolactone 1 mg/L, pods harvested after 6 weeks; for yield increase over Cue®: gluconolactone added with Cue®. The method, then:
Cue® is a genistein/daidzein isoflavonoid product available from Novozymes Biologicals, Inc. Cue® is used as a soybean seed treatment and the effect of gluconolactone in combination with flavonoids was evaluated to see if soybean production could be enhanced. Gluconolactone was prepared with Cue®. Daidzein, another isoflavonoid, was similarly prepared with gluconolactone with daidzein having the same isoflavonoid concentration as Cue®.
About 100 g soybean seeds were treated with 1 mg/L treatment solutions of gluconolactone and 200 μl of CruiserMaxx® Beans (Syngenta) fungicide+170 μl distilled water+30 μl Cue® or daidzein. For control, a total of 200 μl water was used with 200 μl CruiserMaxx® Bean fungicide. One day after seed treatments, seeds were planted in greenhouse in 1 gallon plastic pots containing soilless mix Fafard 3B. There were 3 plants/pot and 4 pots/treatment. Soybean plants were occasionally fertilized with 20-15-20 NPK fertilizer. Pods were harvested after 6 weeks. Average pod fresh weights were analyzed by student-t test using JUMP statistical software.

Assay [2] has as its system soybean. Briefly: Performance of rhizobial inoculants for soybean seeds, pod yield (Example 10). The method, then: The effect of gluconolactone on the performance of rhizobial inoculants for soybean seeds was evaluated to see if soybean production could be enhanced. 1 mg/L of gluconolactone was added to rhizobial inoculants products Cell-Tech® and Optimize-400® (both from Novozymes Biologicals Inc.). Seed treatments were performed following the instruction cited in the product labels. The total liquid dose going onto soybean seeds was maintained the same when gluconolactone was added. Control seeds were treated with water. About 100 g seed was treated in a clear plastic bag (25 cm×25 cm) with treatment solutions. Seeds were planted 2 hours after treatment in […] containing Fafard soilless mix in greenhouse. 3 plants were allowed to grow per pot and there were 5 pots per treatment. Pods were harvested 6 weeks after planting.

The subject of assay [3] is corn seedling. The assay can be described thus: Corn seedling root growth after seed treatment, Petri plate germination, WinRhizo root scanner (Examples 1 and 2). The method, then:
An experiment was performed to determine the effect of gluconolactone on corn seedling root growth parameters. Unsterilized corn seeds (Peterson Hybrid corn 98L90GTCBLL pre-treated with fungicide Acceleron) were treated with water (control) and gluconolactone solutions (1 and 10 mg/L distilled water). In a clear plastic bag (25 cm×25 cm), 100 gram seeds were treated with 500 μl water (for control). Gluconolactone treatments of 1 and 10 mg/L included 250 μl water+250 μl gluconolactone solution with vigorous shaking. Four hours after treatment, 10 seeds were plated in 150 mm×15 mm polystyrene Petri plates (Fisherband) on 5⅜″ germination paper circle (Anchor Paper Co., Saint Paul, Mn) and moistened with 12 ml distilled water. Four Petri plates were prepared per treatment as 4 replicates. Petri plates were then placed in the dark in under-counter cabinets in the lab at 24° C. for 7 days. After 7 days, seedlings were removed from the cabinets, exposed to light, and their main roots severed and measured for various root parameters with WinRhizo root scanner (Regent Instruments Inc., WinRhizo Pro 2007). For all statistical analysis, student t-test was applied using JMPv.9 statistical software.
An experiment was designed to evaluate if any gluconolactone concentration between 1.0-10 mg/L and below 1.0 mg/L has an optimum effect on influencing seedling root growth. Example 2 was conducted according to the protocols of Example 1. Accordingly, gluconolactone concentrations of 5.0 mg/L, 1.0 mg/L, and 0.5 mg/L, were evaluated.

Assay [4] deals with green lentil seedlings. The assay can be described thus: Growth of seedlings in water-agar medium in test tube (Example 3), lentil. The method, then: (§1) The effect of gluconolactone on growth of seedlings of various crops was examined. Corn, green lentil and yellow pea seeds (100 g) were treated with 1.0 mg/L gluconolactone and control seeds were treated with distilled water according to the protocols of Example 1. After treatments, seeds were allowed to dry overnight. One day after treatment, seeds were placed in 25×150 mm glass test tubes containing 40 ml of 5% water-agar solidified medium. Seeds were placed on the surface of medium in each test tube. Test tubes were then placed in a rack and kept in the lab under diffuse light. As the treated seeds were not sterilized, sterilization of the agar medium was not maintained and the test tubes were kept uncapped. Because of the agar medium being without any sugar, the occurrence of contamination was minimal for up to 10 days. The number of seeds per treatment was 10.

Assay [5] has as its system yellow pea seedlings. The assay can be described thus: Growth of seedlings in water-agar medium in test tube (Example 3), pea. The method, then:
as §1

Assay [6] deals with corn seedlings. Briefly: Growth of seedlings in water-agar medium in test tube (Example 3), corn. The method, then: as §1
Assay [7] concerns lentil seedlings. Briefly: Stress tolerance of lentil seedlings at 8° C., root growth parameters (Example 11). The conditions noted are these: seven days after plating, 1.0 mg/L gluconolactone, 100 mg/L glutathione, 100 mg/L PADG. The method, then:
The effect of antioxidants on stress tolerance by lentil seedlings at 8° C. was evaluated. Lentil seeds treated with the treatment solutions at 5 ml/kg of seed. […] Treated seeds were plated in large Petri plates on germination paper moistened with deionized water. Plates were incubated at 8° C. in a walk in cold room. Seven days after plating, seedling roots were measured for various growth parameters.

Setting [8] is: Example 1, GL 1 mg/L seed treatment, main root, 7 days.
Setting [9] is: Example 1, GL 1 mg/L seed treatment, main root, 7 days, listed as GL.
[10] abbreviates: Example 1, GL 10 mg/L seed treatment, main root, 7 days.
The mark [11] stands for this setting: Example 1, GL 10 mg/L seed treatment, main root, 7 days, listed as GL.
Where [12] appears, read: Example 2, GL 0.5 mg/L seed treatment.
Setting [13] is: Example 2, GL 1.0 mg/L seed treatment.
[14] abbreviates: Example 2, GL 5.0 mg/L seed treatment.
Setting [15] is: gluconolactone 1 mg/L seed treatment, harvested 10 days after planting.
Setting [16] is: gluconolactone 1 mg/L, non-significantly.

For the molecule `O=c1c(-c2ccc(O)cc2)coc2cc(O)ccc12` [Daidzein, reference compound], the entries for the “soybean pod yield, Fresh Weight” value in assay [1] (1st trial), in assay [1] (2nd trial) and in assay [1] (3rd trial) were 36.782 g, 36.4 g and 32.482 g, respectively.

In the case of `O=C1O[C@H](CO)[C@@H](O)[C@H](O)[C@H]1O` [Gluconolactone, gluconolactone], the “% increase (dry pod yield)” value in assay [2] (1 mg/L gluconolactone added to Cell-Tech, over Cell-Tech alone) is given as 3.36%; in assay [2] (1 mg/L gluconolactone added to Optimize-400, over Optimize-400 alone), 4.84%. The “yield increase over Cue®” value was found to be 6% in assay [1] (1st trial), 9.7% in assay [1] (2nd trial) and 0.6% in assay [1] (3rd trial). The “yield increase (over daidzein alone)” value in assay [1] (gluconolactone added with daidzein, in 2 out of 3 trials) is recorded as “approximately 2.5%”. Moreover, the Diameter is recorded as 0.940a mm in assay [3] (setting [8]) and “did not show any difference” in assay [3] (setting [10]). Further, the Surface area result in assay [3] (setting [8]) is listed as “significantly higher than control”; in assay [3] (setting [9]) it was 2.128a cm^2; in assay [3] (setting [10]), “did not show any difference”; in assay [3] (setting [11]), 1.748ab cm^2; in assay [7], 0.9457 a cm^2; in assay [7] (listed as gluconolactone), “significantly increased”. Further, the Volume entry is “significantly higher than control” in assay [3] (setting [8]); 0.051a cm^3 in assay [3] (setting [9]); “did not show any difference” in assay [3] (setting [10]); 0.039ab cm^3 in assay [3] (setting [11]); 0.02474 a cm^3 in assay [7]; “significantly increased” in assay [7] (listed as gluconolactone). Moreover, the Length entry in assay [3] (Example 1, GL 1 mg/L seed treatment, main root, 7 days in dark at 24° C.) was “significantly higher than control”; in assay [3] (Example 1, GL 1 mg/L seed treatment, main root, 7 days in dark at 24° C., listed as GL), 7.108a cm; in assay [3] (setting [10]), “did not show any difference”; in assay [3] (setting [11]) it was 6.282ab cm; in assay [3] (setting [12]), 6.778ab cm; in assay [3] (setting [13]) it was “optimum dose”. Besides, the Length in assay [3] (Example 2, GL 1.0 mg/L seed treatment, listed as GL) is 7.048a cm; in assay [3] (setting [14]), “least effective”; in assay [3] (Example 2, GL 5.0 mg/L seed treatment, listed as GL), 6.054b cm. Further, the Diam is 1.190a mm in assay [3] (setting [12]), 1.116b mm in assay [3] (setting [13]) and 1.149ab mm in assay [3] (setting [14]). The “Root Volume” value in assay [3] (setting [12]) is 0.076a cm3; in assay [3] (setting [13]), 0.070ab cm3; in assay [3] (setting [14]), 0.063b cm3. Also, the Seedling dry weight in assay [4] (setting [15]) was 0.083a* g; in assay [5] (setting [15]), 0.483a g; in assay [6] (setting [15]), 0.606a g. The “average plant dry biomass higher (than control)” value is reported as 38.3% in assay [4] (gluconolactone 1 mg/L, significantly); 5.0% in assay [5] (setting [16]); 6.3% in assay [6] (setting [16]). Also, the “No. of lateral roots” value is 2.935 ab in assay [7] and “significantly increased” in assay [7] (listed as gluconolactone). Besides, the results for the “Seedling Root Length” value in assay [7] and in assay [7] (listed as gluconolactone) were 2.895 a cm and “significantly increased”, respectively.
